The subject of one assay is MOLM13. In words: Cell proliferation by CellTiter-Glo, human leukemia cells. Conditions: MOLM13, 72 h. In kind it is cell-based. As for the experimental part: (§1) Eight human leukemia cells with or without MLL1 translocation were treated with AUY922 for 72 h and cell proliferation rate were measured by CellTiter-Glo. IC95 were used to estimate the cell response to HSP90 inhibition. Supplementary Table. S1: 35 Genes were Identified as Modulators of Cell Response to HSP90 Inhibition by siRNA Screening

Assay [1] concerns other leukemia cell lines. The assay is described as above. The assay is classed as cell-based. Particulars: 72 h. As to the method:
as §1

The next assay has as its system RS(4,11). The description is as above. Conditions: 72 h. In kind it is cell-based. As for the experimental part: as §1
The test system of another assay is NOMO. Described as above. Particulars: 72 h. In kind it is cell-based. As to the method:
as §1

Assay [2] relates to binding of HSF1 to HSP70 or BAG3 promoter. As to the kind of experiment: ChIP with HSF1 antibody, quantitative real-time PCR. Particulars: A375 cells, AUY922 100 nM, one hour. In kind it is cell-based, human. As to the method: shHSF1 transduced A375 cells were treated with or without Doxycycline for 3 days and were further treated with AUY922 100 nM for 1 h. Chromatin was immunoprecipitated with anti-MLL1 antibody and amplified by quantitative real-time PCR using primers around HSE element of HSP70 (A) or BAG3 (B) gene promoter and MLL1 binding site of MESI1 (C) promoter.
To examine the recruitment of MLL1 to the HSF1-modulated gene promoter, we performed chromatin immunoprecipitation (ChIP) with A375 cells transduced with control or shMLL1 and treated or untreated with AUY922 for 1 h. Chromatin from those cells was sonicated to obtain fragments below 500 bp and immunoprecipitated using polyclonal against HSF1 and MLL1. Quantitative real-time PCR analysis was carried out with primer specific for the HSP70 and BAG3 encompassing the HSE element. MLL1 binding site of MESI1 was used as a control. […] In contrast, the bindings were not detected in A375 cells with inducible HSF1 knockdown (Supplement FIG. 3). A significant of MLL1 occupancy of the HSP70 and BAG3 gene promoter is also observed at one hour of AUY922 treatment (FIGS. 2C and D). In contrast, the binding of MLL1 to MESI promoter was not detected (FIG. 2E). […]

The subject of assay [3] is MLL1−/− MEFs. In words: Cell apoptosis analysis (7AAD+AnnexinV+, FACS) in MEFs. The assay is classed as cell-based, mouse. Conditions: AUY922 100 nM, 48 h. As for the experimental part: (§2) A. Cell colony formation assay of MLL1 knockdown with AUY922 treatment in A375 cells. 5000 shNTC or shMLL1 A375 cells were seeded in six wells plate and were treated or untreated with Doxycycline for 5 days, then followed by compound treatment for 6 days. B. Cell colony formation assay of MLL1 knockdown with AUY922 treatment in A2058 cells. 5000 shNTC or shMLL1 A2058 cells were seeded in six wells plate and were treated or untreated with Doxycycline for 5 days, then followed by compound treatment for 6 days. C. Western blotting analysis of tumor samples. Tumor samples were collected at the end of studies and western blotting analysis of MLL1 and GAPDH were performed. D. Real-time PCR analysis of tumor samples. Tumor samples were collected at the end of studies and total mRNA was collected and Real-time PCR was performed. E. The combinational effect of MLL1 knockdown and HSP90 inhibitor in A375 xenograft mouse model. Tumor growth rate of A375 cells expressing inducible control shRNA or shRNA against MLL1 under Doxycycline and/or HSP990 were compared at different time points. […] The percentage of S+G2M cells were determined by PI staining. […] The apoptotic cells represented by 7AAD+AnnexinV+ were determined by FACS. […] Relative cell growth was measured by CTG. […] The apoptotic cells represented by 7AAD+AnnexinV+ were determined by FACS.

Assay [4] relates to MLL1+/+ MEFs. The assay is described as above. In kind it is cell-based, mouse. Particulars: AUY922 100 nM, 48 h. As to the method: as §2
In another assay the test system is human primary BALL cells. In words: Dose response in human primary BALL cells (CellTiter-Glo). Particulars: 48 h. The assay is classed as cell-based. As for the experimental part:
A. The percentage of human leukemia cells in bone marrow of recipient mice transplanted with human primary leukemia cells. The human cells represented by human CD45+ were determined by FACS. B. Real-time PCR analysis of MLL1 expression among different human primary leukemia cell. C. Dose response of AUY922 in human primary BALL cells. Human primary BALL cells were treated with DMSO or serial dilutions of AUY922 for 48 h. Relative cell growth was measured by CellTiter-Glo. D. JURKAT, SEM, RS(4,11) and MOLM13 were treated for 72 h with different doses of AUY922 and/or NVP-JAE067, inhibition of cell viability was measured using the CellTiter-Glo assay. E. Chalice software was used to calculate excess inhibition over Loewe additivity for each AUY922 and NVP-JAE067 dose combination.
To investigate whether MLL1 expression is different in primary human cancer cells, we examined the expression of MLL1 in human B acute lymphoblastic leukemia samples. The primary human BALL cells were transplanted into immune deficient mice and bone marrow cells were collected from recipient mice until blood tumor burden is higher than 70% by FACS analysis. […] We next evaluated the efficacy of AUY922 on those human leukemia cells. […] We next tested the combination effect of AUY922 and DOT1L inhibitor NVP-JAE067 on human leukemia cells. […] Taken together, those result indicated human leukemia cells with MLL1 low expression may be more sensitive to HSP90 inhibition and the combination of HSP90 inhibitor and DOT1L inhibitor may be a good strategy for human leukemia cells harboring MLL1 translocation.
For orientation: In ATP-based viability assays light output follows the ATP content of the culture.

Assay [5] deals with MLL1−/− MEFs. As to the kind of experiment: Microscopic analysis and dose response (CTG) in MEFs. In kind it is cell-based, mouse. Particulars: after 48 h treatment. As to the method: as §2
The subject of assay [6] is MLL1+/+ MEFs. The description is as above. The assay is classed as cell-based, mouse. As for the experimental part: as §2
Another assay relates to A375, A2058 and HCT116. As to the kind of experiment: Cell colony formation assay with MLL1 knockdown. Particulars: Doxycycline 5 days, compound 6 days. In kind it is cell-based, human. As to the method: A. Cell colony formation assay of MLL1 knockdown with AUY922 treatment in A375 cells. 5000 shNTC or shMLL1 A375 cells were seeded in six wells plate and were treated or untreated with Doxycycline for 5 days, then followed by compound treatment for 6 days. B. Cell colony formation assay of MLL1 knockdown with AUY922 treatment in A2058 cells. 5000 shNTC or shMLL1 A2058 cells were seeded in six wells plate and were treated or untreated with Doxycycline for 5 days, then followed by compound treatment for 6 days. C. Western blotting analysis of tumor samples. Tumor samples were collected at the end of studies and western blotting analysis of MLL1 and GAPDH were performed. D. Real-time PCR analysis of tumor samples. Tumor samples were collected at the end of studies and total mRNA was collected and Real-time PCR was performed. E. The combinational effect of MLL1 knockdown and HSP90 inhibitor in A375 xenograft mouse model. Tumor growth rate of A375 cells expressing inducible control shRNA or shRNA against MLL1 under Doxycycline and/or HSP990 were compared at different time points. […] The percentage of S+G2M cells were determined by PI staining. […] The apoptotic cells represented by 7AAD+AnnexinV+ were determined by FACS. […] Relative cell growth was measured by CTG. […] The apoptotic cells represented by 7AAD+AnnexinV+ were determined by FACS. […]

The test system of a further assay is SEM xenograft. In words: SEM xenograft mouse model, tumor growth. The assay is classed as in vivo. Particulars: 10 mg/kg PO, qw. As for the experimental part:
(§3) A. Real-time PCR analysis of different human leukemia cell lines under HSP90 inhibitor treatment. Human leukemia cells were cultured and treated or untreated with AUY922 for 48 h. Then, total mRNA was collected and Real-time PCR was performed. B. Cell apoptosis analysis of MLL1 low expression or MLL1 high expression human leukemia cells with AUY922 treatment. Human leukemia cells were treated or untreated with AUY922 100 nM for 48 h. The apoptotic cells represented by 7AAD+AnnexinV+ were determined by FACS. C. The effect of HSP90 inhibitor in SEM and MOLM13 xenograft mouse model. Tumor growth rate of SEM and MOLM13 under HSP990 treatment were compared at different time points. […] SEM and MOLM13 cells were treated or untreated with AUY922 100 nM for 3 h. Total RNA were collected and microarray was performed.
(§4) Mice were maintained and handled in accordance with Novartis Biomedical Research Animal Care and Use Committee protocols and regulations. A375 with Tet-inducible shRNA against MLL1 were cultured in DMEM supplemented with 10% Tet-approved FBS. Mice (6-8 wk old, n=8) were inoculated s.c. with 1×10^6 cells in the right dorsal axillary region. Tumor volume was measured by calipering in two dimensions and calculated as (length×width2)/2. […] Data were expressed as mean±SEM, and differences were considered statistically significant at P<0.05 by Student t test.

The subject of another assay is A375 xenograft. As to the kind of experiment: A375 xenograft mouse model, tumor growth. In kind it is in vivo.
The test system of a further assay is MOLM13 xenograft. In words: MOLM13 xenograft mouse model, tumor growth. In kind it is in vivo. Particulars: 10 mg/kg PO, qw. As for the experimental part:
as §3, §4

The next assay concerns A375 cells. In words: Cell colony formation assay with MLL1 knockdown, NVP-LGX818. In kind it is cell-based, human. Particulars: shMLL1. As for the experimental part:
Supplementary FIG. 5: Cell colony formation assay of HSF1 knockdown or MLL1 knockdown with NVP-LGX818 treatment in A375 cells 5000 shNTC, shHSF1 or shMLL1 A375 cells were seeded in six wells plate and were treated or untreated with Doxycycline for 5 days, then followed by compound treatment for 6 days.

Turning to `CCNC(=O)c1noc(-c2cc(C(C)C)c(O)cc2O)c1-c1ccc(CN2CCOCC2)cc1` [AUY922, 5-(2,4-Dihydroxy-5-isopropyl-phenyl)-4-(4-morpholin-4-ylmethyl-phenyl)-isoxazole-3-carboxylic acid ethylamide], the IC95 result is “about 100 nM” in the assay on MOLM13, “about 1000 nM” in assay [1], “about 100 nM” in the assay on RS(4,11) and “about 100 nM” in the assay with NOMO. For the same compound, the “binding of HSF1 to HSP70 or BAG3 promoter (ChIP)” value in assay [2] is reported as “increased about ten times”. Also, the cells induced apoptosis entry with MLL1−/− MEFs [3] was “more than 80%”; with MLL1+/+ MEFs [4] it was 30%. Moreover, the results for the “response to treatment (relative cell growth)” value in the assay on human primary BALL cells (P1 leukemia cells with high MLL1 expression), in the assay with human primary BALL cells (P4 leukemia cells with low MLL1 expression) and in the assay on human primary BALL cells (other two human leukemia samples) were “didn't response”, “good response” and “a certain response”, respectively. Also, in the assay with MLL1−/− MEFs [5], the cells killed entry is on record as “more than 90%”. Besides, the “effect on proliferation / killing of cells” value in the assay with MLL1+/+ MEFs [6] is “inhibits the proliferation rate of MEFs, but didn't kill those cells”. The “sensitivity in colony formation on induction of MLL1 shRNA” value with A375, A2058 and HCT116 is “dramatically sensitivity”.
For the compound `COc1cccc(-c2cc(F)ccc2[C@H]2Cc3nc(N)nc(C)c3C(=O)N2)n1` [HSP990, (R)-2-amino-7-[4-fluoro-2-(6-methyoxy-pyridin-2-yl)-phenyl]-4-methyl-7,8-dihydro-6H-pyrido[4,3-d]pyrimidin-5-one], the “inhibited tumor growth, T/C” value worked out at 30 % T/C with SEM xenograft; 50 % T/C in the assay with A375 xenograft (HSP990 alone, 10 mg/kg PO, qw); 60 % T/C in the assay on MOLM13 xenograft. For the same compound, in the assay with A375 xenograft (HSF1 knockdown & HSP990 combination), the tumor growth outcome was “tumor stasis”.
In the case of `COC(=O)N[C@@H](C)CNc1nccc(-c2cn(C(C)C)nc2-c2cc(Cl)cc(NS(C)(=O)=O)c2F)n1` [NVP-LGX818], the “combinational effect with MLL1 knockdown, colony formation” value in the assay with A375 cells is listed as “does not have a combinational effect”.
